The record followed here is patent US11957732B2, “Compositions and methods for sensitizing low responsive tumors to cancer therapy” (priority 2016, dated 2024).

In experiment [1] the test system is MDA-MB-231 triple negative breast cancer cells. The experiment can be described thus: Cell death / apoptosis induction, concentration dependent treatment (FACS). Conditions: TNBC MDA-MB-231 cells, read-out: cell death effect IC-50. Format: cell-based.
Procedure: Briefly, MDA-MB-231 cells are seeded in 12-well culture plates and grown to 80% confluency, followed by 72 h treatment with various concentrations of drugs in various combinations; untreated MDA-MB-231 cells are used as control. After the completion of treatment time cells are trypsinized, washed, and analyzed for dead or apoptotic cells by staining with propidium iodide (10 μg/ml) for 15 min, followed by flow cytometry (FACS Aria Ill, BD Biosciences, San Jose, CA, USA) at the Stanford FACS Facility. Data are analyzed by Flow Jo FACS analysis software (Tree Star, Ashland, OR, USA).
A further experiment concerns MDA-MB-231 tumor cells. Kind of experiment: Synergistic cell death effect of AMP compounds with chemotherapy (doxorubicin, carboplatin). Format: cell-based. On the procedure: MMP2 cleavable AMP-008 was dissolved in culture medium and sonicated for 2 min each and repeated for 3 times. After the cells treated with different concentration of doxorubicin HCl (Bedford Lab, Bedford, OH), AMP compounds alone or combination of doxorubicin and AMP compounds were tested for 17 hrs incubation respectively, the cells were washed three times with PBS (pH 7.4) and incubated with Cy5.5 Annexin-V (BD Bioscience Pharmingen) according to the instructions of the manufacture. The cells were imaged using Nikon Eclipse TE-300 fluorescence microscope and counted under Ex/Em 620-680 nm nm/700-750 nm.

The subject of a further experiment is MGC-803 xenograft. The experiment can be described thus: Synergy with doxorubicin in gastric cancer animal model in vivo. The arrangement: species or system athymic BALB/cA nu/nu female mice. Particulars: 1 mg/kg i.p. every other day for 3 weeks.
Experiment [2] concerns SGC-7901 gastric cancer cells. The experiment can be described thus: Growth suppression, apoptosis and IC50 in gastric cancer cells SGC-7901. Conditions: Homo sapiens, read-out: IC50 (IC50 drift, DOX only or AMP-001/DOX combination); SGC-7901 cells. Format: cell-based.
For experiment [3], the system named is MGC-803 gastric cancer cells. The experiment can be described thus: Growth suppression, apoptosis and IC50 in gastric cancer cells MGC-803. The experiment is classed as cell-based. Conditions: Homo sapiens, MGC-803, read-out: IC50 (IC50 drift, DOX only or AMP-001/DOX combination).
A further experiment concerns iCell Cardiomyocytes. Kind of experiment: cells. Particulars: Homo sapiens, Cardiomyocyte, read-out: IC50 in cardiomyocytes.

Bridge positions count the residues as written; N and C are the ends. Square brackets hold non-standard residues; d marks the D form. Ends that are not written are not given here. hPhe = N[C@@H](CCc1ccccc1)C(=O)O; Cit = NC(=O)NCCC[C@H](N)C(=O)O

Procedure for iCell Cardiomyocytes: Cardiomyocytes were derived from this engineered stem cell clone line as follows. Stem cell aggregates were formed from single cells and cultured in suspension in medium containing zebrafish bFGF (basic fibroblast growth factor) and fetal bovine serum. Upon observation of beating cardiac aggregates, cultures were subjected to blasticidin selection at 25 ug/ml to enrich the cardiomyocyte population. Cardiomyocyte aggregate cultures were maintained in Dulbecco's modified Eagle's medium (DMEM) containing 10% fetal bovine serum during cardiomyocyte selection through the duration of the culture prior to cryopreservation. At 30 to 32 days of culture the enriched, stem cell-derived cardiomyocytes were subjected to enzymatic dissociation using 0.5% trypsin to obtain single cell suspensions of purified cardiomyocytes, which were >98% cardiac troponin-T (cTNT) positive. These cells (iCell® Cardiomyocytes) were cryopreserved and stored in liquid nitrogen before delivery to Ionic Transport Assays from Cellular Dynamics International, Madison, WI.
For this study, single vials containing≈4.5×10^6 cardiomyocytes were thawed by immersing the frozen cryo-vial in a 37° C. water bath, transferring thawed cardiomyocytes into a 50 ml tube and diluting them with room temperature plating medium (iCell® Cardiomyocyte Plating Medium (iCPM), Cellular Dynamics International). […]

Take “AMP-004: human beta-defensin joined to MMP2 cleavable peptide, SEQ ID NO: 003, three disulfide bonds (Ac-EGGGP[Cit]G[hPhe]YLDHYNCVSSGGQCLYSACPIFTKIQGTCYRGKAKCCK; disulfide 15-44, 22-37, 27-45)”: the IC50 in experiment [1] was roughly 5 µM. Besides, the “synergistic effect when both were administered together” value with MDA-MB-231 tumor cells (AMP compound and doxorubicin administered together) is given as “Synergistic effect was same”. In the experiment on MDA-MB-231 tumor cells (pretreatment with AMP compound for 6 hrs followed by 1 μM doxorubicin), the “cell death, synergistic (not additive) effect” value is recorded as “greater than 80%”.

For `COc1cccc2c1C(=O)c1c(O)c3c(c(O)c1C2=O)C[C@@](O)(C(=O)CO)C[C@@H]3O[C@H]1C[C@H](N)[C@H](O)[C@H](C)O1` [doxorubicin], in the experiment with MGC-803 xenograft, the “extent of tumor regression” value was “reasonable”. The IC50 came to 0.436 µM in experiment [2], 1.08 µM in experiment [3] and 9.6 µM in the experiment on iCell Cardiomyocytes.
